Laboratory results as given in article PMC5913603, “Structure–activity relationships of strigolactones via a novel, quantitative in planta bioassay” (Journal of Experimental Botany, 2018).
“Also recorded” adds a separate entry of the source.

Legend:
[1] = biological target: T1, AtD14 fused to firefly luciferase (D14::LUC) (Arabidopsis thaliana, UniProt Q9SQR3); experiment: Luminometer (luciferase) assay: D14::LUC degradation in transgenic Arabidopsis seedlings; format: in vivo; conditions: for D14 degradation in the luciferase assay: 0.01–100 μM range, racemic mixtures
T1 construct: a pDONOR207 carrying the D14 promoter fused to the D14 CDS; expressed in transfected cells
T1 sequence (Q9SQR3 1-267): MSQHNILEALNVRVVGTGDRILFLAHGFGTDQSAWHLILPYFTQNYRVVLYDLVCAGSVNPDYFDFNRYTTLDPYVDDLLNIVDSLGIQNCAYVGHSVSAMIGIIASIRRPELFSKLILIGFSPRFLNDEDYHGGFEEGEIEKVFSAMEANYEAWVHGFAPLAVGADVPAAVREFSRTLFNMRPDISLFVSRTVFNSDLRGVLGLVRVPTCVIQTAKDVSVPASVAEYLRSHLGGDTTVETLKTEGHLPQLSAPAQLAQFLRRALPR
Method: A binary D14p::D14::LUC vector was obtained by LR-recombination (Invitrogen) of a pDONOR207 carrying the D14 promoter fused to the D14 CDS ([Chevalier et al., 2014]) in pGWB435 ([Nakagawa et al., 2007]). Transgenic D14::D14::LUC Arabidopsis plants were generated by agroinfiltration of Col-0 plants using the floral dip method ([Clough and Bent, 1998]). Seeds were surface-sterilized with an 8% aqueous solution of commercial bleach in distilled water for 5 min and rinsed five times with sterile distilled water. Sterile seeds were plated on MS medium (pH 5.8) ([Murashige and Skoog, 1962]) without sucrose solidified with 1.2% Agar, and kept at 4 °C for 3 d (stratification). Seeds were then incubated for 7 d in a growth chamber at 25 °C and a photoperiod of 16 h light/8 h dark. SL analogues and mimics (Figs 1, 2) were accurately weighed and dissolved in acetone at 10^–2 M. Five different concentrations (10^–4 M, 10^–5 M, 10^–6 M, 10^–7 M, 10^–8 M) were prepared by 1:10 serial dilutions in liquid MS medium, together with blank controls containing corresponding water and acetone volumes in the medium. D-Luciferin (potassium salt) stock was prepared at 25 mg ml^–1 in DMSO, aliquoted and stored at –80 °C until use; all other solutions were prepared just before the assay. Using tweezers, 7-d-old Arabidopsis seedlings were placed in a 96-well microtiter plate with their cotyledons facing up (one seedling per well, in 170 µl of liquid MS medium), and 15 µl of luciferin (0.125 mg ml^–1, diluted 1:200 in MS from stock) was added to each well, corresponding to 1.875 µg. The plate was covered with a transparent film with a hole poked above each well to allow for gas exchange. Measurements were taken every 15 min in a multimode reader (LB942 Tristar2 S, Berthold Technologies) for the following 24 h; the signal was allowed to stabilize for 2–3 h in the light before treatments were started by adding 15 µl per well of the different SLs in MS medium, thus reaching a final volume in each well of 200 µl and 9.4 µg ml^– of luciferin. Appropriate blank controls were added as well. Each treatment was applied to a minimum of 16 wells (seedlings), each of which was measured individually over time. The percentage efficacy of each compound molecule was calculated 6 h after treatment as a function of the decrease in D14::LUC-emitted luminescence with respect to (+)-GR24 1 µM (i.e. GR24^5DS), assuming that the latter, minus the drift of the corresponding blank control, had 100% efficacy. For calibration purposes, SL analogues that had already been characterized, namely (±)-ST23b, (±)-EGO10, and (±)-EDOT ([Prandi et al., 2011]), were tested across the same concentration range, along with (±)-strigol (Chiralix, NL). The half maximal-effective concentration (EC50) for (+)-GR24 was calculated by linear regression fitting of the data (n=5, with at least three individual seedlings and values being pooled for each replicate) at the different concentrations, minus the values for acetone-treated samples (negative controls) and normalized in relation to (+)-GR24 0.01 μM, which was set to 0%. Confidence intervals at 95% were used to express errors of the means.
D14 is a target for proteasome-dependent destruction upon interaction with its ligand(s), which explains why fluorescence of D14::GFP fusion proteins is quenched upon SL treatment in transgenic Arabidopsis ([Chevalier et al., 2014]). We exploited this molecular network to implement a quantitative activity assay that inversely correlated luminescence to perception of SL-related molecules in transgenic Arabidopsis expressing D14::LUC under the control of the D14 endogenous promoter. […] We then used the assay to test various SLs in the same range, namely strigol as an example of natural SLs; ST23b, EGO10, and EDOT (Fig. 1, all used as rac mixtures) as examples of active SL analogues; and the new set of SL-D-lactams rac-1–9 (Fig. 2).
Fig. 4. Luciferase assay. […]

[2] = biological target: T1, AtD14 fused to firefly luciferase (D14::LUC); experiment: Luminometer-based competition assay between rac-9 and (+)-GR24; format: in vivo; conditions: rac-9 constant at 10 μM, (+)-GR24 0.01–100 μM
Method: The efficacy values in these samples in terms of luminescence quenching were compared with those of samples receiving (+)-GR24 alone (positive control). […] Luciferase competition test between rac-9 and (+)-GR24. (A) Efficacy values for (+)-GR24 across a range of concentrations, normalized to the value at 1 μM, which was set to 100%. (B) Efficacy values for (+)-GR24 across the same range of concentrations as in (A), but in the presence of rac-9 at 10 μM. Data are means (±SD) of n=5 replicates, where each replicate consisted of at least three pooled individual seedlings and readings.

| SMILES | D14 degradation in the luciferase assay [1] | Activity in the luciferase assay at 10 μM ([1]; 10 μM) | Activity in the luciferase assay at 100 μM ([1]; 100 μM) | Antagonism of (+)-GR24 [2] |
| --- | --- | --- | --- | --- |
| CC1=C[C@H](O/C=C2/C(=O)O[C@@H]3c4ccccc4C[C@H]23)NC1=O (racemic) [rac-3] | almost inactive | – | – | – |
| CC1=C[C@H](O/C=C2/C(=O)O[C@H]3c4ccccc4C[C@@H]23)NC1=O (racemic) [rac-4] | weak activity | – | – | – |
| CC1=CC(C2Cc3c(n(C)c4ccccc34)C2=O)NC1=O (racemic) [rac-9] | substantially inactive | inactive | partial agonist | no antagonistic behaviour; also recorded: did not possess antagonistic activity |
